Experimental data from patent publication US20110039879A1, “METHODS FOR INCREASING WHITE BLOOD CELLS” (FibroGen ,Inc., priority 2007, published 2011).

Legend:
Assay type in all cases: in vivo, Swiss-Webster mice
[1] = system: hematopoietic progenitor cells (HPCs) in bone marrow; test: Hematopoietic progenitor cells in bone marrow by FACS analysis; conditions: mice, oral gavage, tibia bone marrow 6 h after final dosing
Description: (§1) Six hours after the final dosing, 200 μl blood samples were collected for detection of hematopoietic progenitor cells (HPCs) and neutrophils by FACS analysis using methods previously described. (See, e.g., Wang et al. (1997) J Leukoc Biol 62 503-9 and Legasse et al. (1996) J Immunol Methods 197:139-50.) Briefly, leukocytes and progenitor cells were isolated from whole blood samples following erythrocyte depletion using red blood cell lysis buffer (eBioscience) according to the manufacturer's instructions. The remaining cells were incubated for one hour with monoclonal antibodies directed against mouse Sca-1 and mouse c-Kit (cell surface markers for HPCs, BD Pharmingen), or mouse Mac-1 and mouse Gr-1 (cell surface markers for murine neutrophils, BD Pharmingen). Following incubation with the monoclonal antibodies, the cells were washed three times with sort buffer (PBS, 1% fetal bovine serum) and resuspended in sort buffer containing 50 μg/ml of propidium iodide. Samples were then analyzed for the presence and quantitation of HPCs and neutrophils by flow cytometry (FACS Calibur, Becton Dickinson). The cytometer was set to acquire 10 000 events. Two or three blood samples obtained from each animal were analyzed and the average recorded. Hematopoietic progenitor cells were determined as double positive Sca-1+/c-Kit+ cells and neutrophils were determined as double positive Mac-1+/Gr-1+ cells.
(§2) To examine the effect of compounds and methods of the present invention on hematopoietic progenitor cell (HPC) and neutrophil levels in bone marrow, the following studies were performed. Male Swiss-Webster mice were administered various compounds of the present invention via oral gavage using a ball-tipped gavage needle. Animals treated by oral gavage received a 10 ml/kg volume of either 0.5% carboxymethyl cellulose (CMC) with 0.1% Polysorbate 80 (vehicle control) or various doses (10-100 mg/kg) of a compound of the present invention in 0.5% CMC with 0.1% Polysorbate 80. Animals were dosed once daily for 3 or 4 days. Six hours after the final dosing, bone marrow samples were taken from one tibia of each animal and suspended in buffer (PBS with 1% fetal bovine serum). Bone marrow suspensions were then filtered through nylon filters to remove stromal cells. Following filtration, the remaining cells were counted manually using a hemocytometer. Detection and quantitation of HPCs and neutrophils were performed by FACS analysis as described above in Example 1.

neutrophils [2] = test: Neutrophils by complete blood count, once daily dosing 3 or 4 days; conditions: mice, oral gavage, blood 6 h after final dosing, CBC
Description: (§3) To examine the effect of compounds and methods of the present invention on increasing white blood cells, the following studies were performed. In one series of experiments, male Swiss-Webster mice were administered various compounds of the present invention via oral gavage using a ball-tipped gavage needle. Animals treated by oral gavage received a 10 ml/kg volume of either 0.5% carboxymethyl cellulose (CMC) with 0.1% Polysorbate 80 (vehicle control) or various doses (10-100 mg/kg) of a compound of the present invention in 0.5% CMC with 0.1% Polysorbate 80. Animals were dosed once daily for 3 or 4 days. Six hours after the final dosing, 200 μl blood samples were collected and total white blood cell, neutrophil, and lymphocyte levels were measured by complete blood count (CBC) using a CellDyn cell analyzer (Abbott Laboratories).

lymphocytes = test: Lymphocytes by complete blood count, once daily dosing 3 or 4 days; conditions: mice, oral gavage, blood 6 h after final dosing, CBC
Description: as §3

[3] = system: hematopoietic progenitor cells (HPCs); test: Hematopoietic progenitor cells (Sca-1+/c-Kit+) in blood by FACS analysis; conditions: mice, oral gavage, blood 6 h after final dosing
Description: (§4) To examine the effect of compounds and methods of the present invention on hematopoietic progenitor cell (HPC) and neutrophil levels, the following studies were performed. Male Swiss-Webster mice were administered various compounds of the present invention via oral gavage using a ball-tipped gavage needle. Animals treated by oral gavage received a 10 ml/kg volume of either 0.5% carboxymethyl cellulose (CMC) with 0.1% Polysorbate 80 (vehicle control) or various doses (10-100 mg/kg) of a compound of the present invention in 0.5% CMC with 0.1% Polysorbate 80. Animals were dosed once daily for 3 or 4 days.
as §1

[4] = system: total white blood cell (WBC); test: Total white blood cells by complete blood count, once daily dosing 3 or 4 days; conditions: mice, oral gavage, blood 6 h after final dosing
Description: as §3

[5] = system: neutrophils in bone marrow; test: Neutrophils in bone marrow by FACS analysis; conditions: mice, oral gavage, tibia bone marrow 6 h after final dosing
Description: as §1, §2

neutrophils [6] = test: Neutrophils (Mac-1+/Gr-1+) in blood by FACS analysis; conditions: mice, oral gavage, blood 6 h after final dosing
Description: as §4, §1

Compound: Cc1cccc(C)c1Oc1ccc2c(C#N)nc(C(=O)NCC(=O)O)c(O)c2c1 [Compound C]
- Percent Bone Marrow HPCs ([1]; 20 mg/kg once daily for 3 days): 4.9 % gated cells
- Percent Bone Marrow HPCs Fold Increase Over Control ([1]; 20 mg/kg once daily for 3 days): 1.5 fold
- Percent Bone Marrow HPCs ([1]; 20 mg/kg once daily for 4 days): 1.4 % gated cells
- Percent Bone Marrow HPCs Fold Increase Over Control ([1]; 20 mg/kg once daily for 4 days): 1.2 fold
- Percent Bone Marrow HPCs ([1]; 60 mg/kg once daily for 3 days): 6.1 % gated cells
- Percent Bone Marrow HPCs Fold Increase Over Control ([1]; 60 mg/kg once daily for 3 days): 1.8 fold
- Percent Bone Marrow HPCs ([1]; 60 mg/kg once daily for 4 days): 1.8 % gated cells
- Percent Bone Marrow HPCs Fold Increase Over Control ([1]; 60 mg/kg once daily for 4 days): 1.5 fold
- Neutrophils (neutrophils [2]; 20 mg/kg once daily for 3 days): 0.97 10^3 cells/μl
- Neutrophils % Increase Over Control (neutrophils [2]; 20 mg/kg once daily for 3 days): 142%
- Neutrophils (neutrophils [2]; 20 mg/kg once daily for 4 days): 0.77 10^3 cells/μl
- Neutrophils % Increase Over Control (neutrophils [2]; 20 mg/kg once daily for 4 days): −4%
- Neutrophils (neutrophils [2]; 60 mg/kg once daily for 3 days): 1.73 10^3 cells/μl
- Neutrophils % Increase Over Control (neutrophils [2]; 60 mg/kg once daily for 3 days): 333%
- Neutrophils (neutrophils [2]; 60 mg/kg once daily for 4 days): 1.37 10^3 cells/μl
- Neutrophils % Increase Over Control (neutrophils [2]; 60 mg/kg once daily for 4 days): 71%
- Lymphocytes (lymphocytes; 20 mg/kg once daily for 3 days): 10.63 10^3 cells/μl
- Lymphocytes % Increase Over Control (lymphocytes; 20 mg/kg once daily for 3 days): 117%
- Lymphocytes (lymphocytes; 20 mg/kg once daily for 4 days): 17.97 10^3 cells/μl
- Lymphocytes % Increase Over Control (lymphocytes; 20 mg/kg once daily for 4 days): 192%
- Lymphocytes (lymphocytes; 60 mg/kg once daily for 3 days): 12.70 10^3 cells/μl
- Lymphocytes % Increase Over Control (lymphocytes; 60 mg/kg once daily for 3 days): 159%
- Lymphocytes (lymphocytes; 60 mg/kg once daily for 4 days): 22.77 10^3 cells/μl
- Lymphocytes % Increase Over Control (lymphocytes; 60 mg/kg once daily for 4 days): 270%
- Blood HPCs ([3]; 20 mg/kg once daily for 3 days): 403 cells/μl
- Blood HPCs Fold Increase Over Control ([3]; 20 mg/kg once daily for 3 days): 2.7 fold
- Percent Blood HPCs ([3]; 20 mg/kg once daily for 3 days): 3.4 % gated cells
- Percent Blood HPCs Fold Increase Over Control ([3]; 20 mg/kg once daily for 3 days): 1.6 fold
- Blood HPCs ([3]; 20 mg/kg once daily for 4 days): 155 cells/μl
- Blood HPCs Fold Increase Over Control ([3]; 20 mg/kg once daily for 4 days): 1.9 fold
- Percent Blood HPCs ([3]; 20 mg/kg once daily for 4 days): 0.9 % gated cells
- Percent Blood HPCs Fold Increase Over Control ([3]; 20 mg/kg once daily for 4 days): 0.7 fold
- Blood HPCs ([3]; 60 mg/kg once daily for 3 days): 486 cells/μl
- Blood HPCs Fold Increase Over Control ([3]; 60 mg/kg once daily for 3 days): 3.3 fold
- Percent Blood HPCs ([3]; 60 mg/kg once daily for 3 days): 3.4 % gated cells
- Percent Blood HPCs Fold Increase Over Control ([3]; 60 mg/kg once daily for 3 days): 1.5 fold
- Blood HPCs ([3]; 60 mg/kg once daily for 4 days): 336 cells/μl
- Blood HPCs Fold Increase Over Control ([3]; 60 mg/kg once daily for 4 days): 4.1 fold
- Percent Blood HPCs ([3]; 60 mg/kg once daily for 4 days): 1.4 % gated cells
- Percent Blood HPCs Fold Increase Over Control ([3]; 60 mg/kg once daily for 4 days): 1.2 fold
- Total WBC ([4]; 20 mg/kg once daily for 3 days): 11.80 10^3 cells/μl
- Total WBC % Increase Over Control ([4]; 20 mg/kg once daily for 3 days): 117%
- Total WBC ([4]; 20 mg/kg once daily for 4 days): 18.83 10^3 cells/μl
- Total WBC % Increase Over Control ([4]; 20 mg/kg once daily for 4 days): 167%
- Total WBC ([4]; 60 mg/kg once daily for 3 days): 14.50 10^3 cells/μl
- Total WBC % Increase Over Control ([4]; 60 mg/kg once daily for 3 days): 166%
- Total WBC ([4]; 60 mg/kg once daily for 4 days): 24.33 10^3 cells/μl
- Total WBC % Increase Over Control ([4]; 60 mg/kg once daily for 4 days): 245%
- Percent Bone Marrow Neutrophils ([5]; 20 mg/kg once daily for 3 days): 47.1 % gated cells
- Percent Bone Marrow Neutrophils Fold Increase Over Control ([5]; 20 mg/kg once daily for 3 days): 1.2 fold
- Percent Bone Marrow Neutrophils ([5]; 60 mg/kg once daily for 3 days): 41.3 % gated cells
- Percent Bone Marrow Neutrophils Fold Increase Over Control ([5]; 60 mg/kg once daily for 3 days): 1.0 fold
- Blood Neutrophils (neutrophils [6]; 20 mg/kg once daily for 3 days): 1,375 cells/μl
- Blood Neutrophils Fold Increase Over Control (neutrophils [6]; 20 mg/kg once daily for 3 days): 2.8 fold
- Percent Blood Neutrophils (neutrophils [6]; 20 mg/kg once daily for 3 days): 11.6 % gated cells
- Percent Blood Neutrophils Fold Increase Over Control (neutrophils [6]; 20 mg/kg once daily for 3 days): 1.2 fold
- Blood Neutrophils (neutrophils [6]; 20 mg/kg once daily for 4 days): 1,067 cells/μl
- Blood Neutrophils Fold Increase Over Control (neutrophils [6]; 20 mg/kg once daily for 4 days): 2.0 fold
- Percent Blood Neutrophils (neutrophils [6]; 20 mg/kg once daily for 4 days): 15.8 % gated cells
- Percent Blood Neutrophils Fold Increase Over Control (neutrophils [6]; 20 mg/kg once daily for 4 days): 1.5 fold
- Blood Neutrophils (neutrophils [6]; 60 mg/kg once daily for 3 days): 2,487 cells/μl
- Blood Neutrophils Fold Increase Over Control (neutrophils [6]; 60 mg/kg once daily for 3 days): 5.1 fold
- Percent Blood Neutrophils (neutrophils [6]; 60 mg/kg once daily for 3 days): 17.6 % gated cells
- Percent Blood Neutrophils Fold Increase Over Control (neutrophils [6]; 60 mg/kg once daily for 3 days): 1.8 fold
- Blood Neutrophils (neutrophils [6]; 60 mg/kg once daily for 4 days): 2,933 cells/μl
- Blood Neutrophils Fold Increase Over Control (neutrophils [6]; 60 mg/kg once daily for 4 days): 5.5 fold
- Percent Blood Neutrophils (neutrophils [6]; 60 mg/kg once daily for 4 days): 12.2 % gated cells
- Percent Blood Neutrophils Fold Increase Over Control (neutrophils [6]; 60 mg/kg once daily for 4 days): 1.2 fold
